Source: article PMC6787163, “Systematic Dual Targeting of Dendritic Cell C-Type Lectin Receptor DC-SIGN and TLR7 Using a Trifunctional Mannosylated Antigen” (Frontiers in Chemistry, 2019)
Where “and” joins values, the source holds several entries; their conditions need not be identical. Identical values can stand only once.

Assays:
DC-SIGN ECD = molecular target: T1, DC-SIGN ECD (Homo sapiens, UniProt Q9NNX6); assay: SPR competition (inhibition) assay, DC-SIGN ECD on BSA-mannotriose surface; type: binding; conditions: DC-SIGN ECD 20 μM
T1 construct: The ECD of DC-SIGN (residues 66–404) was overexpressed and purified as previously described; made in house
T1 sequence (Q9NNX6 66-404): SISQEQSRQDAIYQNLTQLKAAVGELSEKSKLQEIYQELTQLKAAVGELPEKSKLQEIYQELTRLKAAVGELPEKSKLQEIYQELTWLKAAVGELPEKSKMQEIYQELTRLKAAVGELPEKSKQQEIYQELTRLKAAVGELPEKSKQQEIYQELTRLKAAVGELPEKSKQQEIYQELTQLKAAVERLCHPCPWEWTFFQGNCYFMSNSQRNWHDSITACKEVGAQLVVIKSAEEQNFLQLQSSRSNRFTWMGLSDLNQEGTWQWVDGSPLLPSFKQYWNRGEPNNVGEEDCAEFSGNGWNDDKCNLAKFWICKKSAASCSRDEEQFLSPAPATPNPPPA
Description: (§1) The affinity of the clusters for the extracellular domain (ECD) of the DC-SIGN receptor (DC-SIGN ECD) was estimated via surface plasmon resonance (SPR) assays (Tabarani et al., [2009]). The apparent Kd was calculated in direct interaction mode using a surface functionalized in an oriented manner with DC-SIGN ECD. In this assay, tetrameric DC-SIGN ECD is attached to the surface of the sensor chip via the N-terminus of its neck oligomerization domain, thus presenting its four carbohydrate recognition domains toward the solvent, realistically mimicking the presentation of the receptor on cell surface (Porkolab et al., [2019]). For some of the low affinity ligands, in the mM range, it was not possible to determine their affinity with this assay, and therefore a competition experiment was performed providing IC50 values (Timpano et al., [2008]) (Figure 3A). […] When comparing equivalent clusters, the α1,2-di-mannoside (B series) bound with the highest affinity (Figure 3A). […] A potential explanation for this effect could be that the spacing of clusters is more important for the larger tri-mannosides.
The ECD of DC-SIGN (residues 66–404) was overexpressed and purified as previously described (Tabarani et al., [2009]). The DC-SIGN S-ECD construct used for direct interaction experiment (see below) has been overexpressed and purified as described elsewhere (Porkolab et al., [2019]). The SPR competition experiments were performed on a BIAcore T200 using a CM3 series S sensor chip. Flow cells were activated as previously described (Halary et al., [2002]). Flow cell 1 was functionalized with BSA, blocked with ethanolamine and subsequently used as a control surface. Flow cells 2 and 3 were treated with BSA-Man α1-3[Manα1-6]Man (Dextra) (60 μg/mL) in 10 mM NaOAc pH 4 and blocked with ethanolamine. The final densities on flow cells 2 and 3 were about 2,100 RU. The affinities of the various compounds for DC-SIGN ECD were evaluated via an established inhibition assay (Andreini et al., [2011]) in which DCSIGN ECD was injected at 20 μM alone or in the presence of increasing concentration of inhibitors. Injections were performed at 5 μL/min using 25 mM Tris-HCl pH 8, 150 mM NaCl, 4 mM CaCl2, 0.05% P20 surfactant as running buffer. The surface was regenerated by the injection of 50 mM EDTA. The data was analyzed in BIAcore BIAevaluation software using four parameter equation.

DC-SIGN S-ECD = molecular target: T2, DC-SIGN S-ECD (Homo sapiens, UniProt Q9NNX6); assay: SPR direct interaction assay on oriented DC-SIGN S-ECD surface; type: binding; conditions: SPR direct interaction, oriented tetrameric DC-SIGN ECD surface, apparent Kd; read-out: Kdapp
T2 construct: The ECD of DC-SIGN (residues 66–404) was overexpressed and purified as previously described; made in house
T2 sequence (Q9NNX6 66-404): T1 sequence (Q9NNX6 66-404)
Description: as §1
The direct interaction experiments were executed on a T200 Biacore with a CM3 series S sensor chip. Contrary to the competition assay described above, in this test, DC-SIGN ECD used harbors a StreptagII in its N-terminus (DC-SIGN S-ECD) to allow its capture and functionalization onto the surface in an oriented manner. Flow cells were functionalized as previously described (Porkolab et al., [2019]). Briefly, after EDC/NHS activation, flow cells were functionalized with streptactin protein in a first step. Flow cell 1 was used as control, while other flow cells were, in a second round of activation, functionalized with 100 μg/mL of a DC-SIGN S-ECD up to a final density ranging between 2,500 and 3,000 RU, via tag specific capture and linkage by amine coupling chemistry simultaneously. The compounds were injected in running buffer of 25 mM Tris pH 8, 150 mM NaCl, 4 mM CaCl2, 0.05% Tween 20 onto the surface at increasing concentrations with a flow rate of 30 μL/min. The ligand titration led to the determination of an apparent Kd value. The data was analyzed in BIAcore BIAevaluation software for direct interaction 1:1 calculation assuming that the Kd will reflect the affinity of the ligands (glycoclusters) for the DC-SIGN oriented surface used as a whole.

moDCs = assay: Internalization of biotinylated hexavalent clusters by moDCs (flow cytometry); type: cell-based, human; conditions: for internalization by moDCs (loss of surface streptavidin signal) / uptake by immature moDCs: 20 μM cluster; for internalization by moDCs (loss of surface streptavidin signal): live moDCs; for internalization by moDCs (pHrodo-avidin fluorescence increase): clusters pre-complexed with pH-sensitive dye; for uptake by immature moDCs: within 5 min at 37°C
Description: For the internalization, the moDCs were incubated with clusters b6, c6, d6, and e6 for 1 h at 4°C, where after unbound ligands were washed away with ice-cold medium. Warm medium was added to the moDCs, and samples were taken at the indicated time points and put on ice. Upon staining the moDCs with fluorophore-conjugated streptavidin, we could measure the signal loss of the membrane via flow cytometry. To exclude ligand-receptor dissociation before internalization, the moDCs were fixed under gentle conditions, hereby inhibiting receptor-mediated endocytosis. On fixed moDCs the clusters remained at the surface, as no signal loss could be detected (Supplementary Figure 1D). […] The di-mannoside clusters (b6, c6, and d6) were internalized relatively fast, with a 50% uptake within 5 min (Figure 5B). The tri-mannoside cluster e6 however remained longer at the membrane surface and only a 25% uptake was seen after 30 min. Similar results were seen using a pH-sensitive fluorophore. In acidic environments, such as the endosomes and lysosomes, the fluorescence of this dye increases. Pre-complexed clusters mirrored the accelerated uptake of the di-mannoside clusters over the e6 cluster (Supplementary Figure 1E). Although the DC-SIGN mediated uptake mechanism is known (Cambi et al., [2009]), the initiation trigger for endocytosis upon DC-SIGN-ligand binding remains unclear. Recognition of the di-mannoside clusters could induce signaling leading to accelerated uptake, whereas the tri-mannoside cluster could trigger a different signaling pathway. Nonetheless, the clusters harboring the smaller mannosides are preferred. Although the binding affinity of the clusters ranged from 0.9 to 6.6 μM, the di-mannosides induce more rapid DC-SIGN internalization over the tri-mannosides, and can thus increase intracellular peptide concentrations more efficiently for further antigen processing and presentation.
Immature day 5 moDCs were harvested and washed with cold HBSS (Thermo Fischer), after which half of the moDCs were gently fixed for 20 min at RT with 1% PFA in PBS. Afterwards, 20 μM of the different biotinylated mannose-clusters in cold HBSS were added. The moDCs were incubated for 1 h on ice, and washed in cold HBSS. Subsequently, warm HBSS was added to the cells, and cells were incubated at 37°C in a shaking heating block. At the indicated time points, a sample of the cells was taken and put on ice. After the last time point, the cells were stained with Streptavidin-Alexa647 (Thermo Fisher), measured using flow cytometry (CyAn™ ADP with Summit™ Software), and further analyzed using FlowJo v10. The same procedure was used for internalization with pHrodo^TM Red Avidin (Thermo Fischer). The different biotinylated mannose-clusters were however incubated with pHrodo-Avidin (ratio 2:1) for 15 min at 37°C, prior to moDC exposure. The fluorescence upon internalization was measured using flow cytometry (BD LSRFortessa™ X-20 with FACSDiva Software), and further analyzed using FlowJo v10.

SMILES | IC50 (DC-SIGN ECD) [µM] | Kd (DC-SIGN S-ECD) | internalization by moDCs (loss of surface streptavidin signal) (moDCs) | internalization by moDCs (pHrodo-avidin fluorescence increase) (moDCs) | uptake by immature moDCs (moDCs) [%]
CC(=O)N[C@@H](CCCCn1cc(CO[C@H]2O[C@H](CO)[C@@H](O)[C@H](O)[C@@H]2O)nn1)C(=O)NCC(=O)N[C@@H](CCCCn1cc(CO[C@H]2O[C@H](CO)[C@@H](O)[C@H](O)[C@@H]2O)nn1)C(=O)NCC(=O)N[C@@H](CCCCN)C(N)=O [A2] | 2600 ± 95 |  |  |  | 
CC(=O)N[C@@H](CCCCn1cc(CO[C@H]2O[C@H](CO)[C@@H](O)[C@H](O)[C@@H]2O)nn1)C(=O)NCC(=O)N[C@@H](CCCCn1cc(CO[C@H]2O[C@H](CO)[C@@H](O)[C@H](O)[C@@H]2O)nn1)C(=O)NCC(=O)N[C@@H](CCCCn1cc(CO[C@H]2O[C@H](CO)[C@@H](O)[C@H](O)[C@@H]2O)nn1)C(=O)NCC(=O)N[C@@H](CCCCN)C(N)=O [A3] | 736.7 ± 3.4 |  |  |  | 
CC(=O)N[C@@H](CCCCn1cc(CO[C@H]2O[C@H](CO)[C@@H](O)[C@H](O)[C@@H]2O[C@H]2O[C@H](CO)[C@@H](O)[C@H](O)[C@@H]2O)nn1)C(=O)NCC(=O)N[C@@H](CCCCN)C(N)=O [B1] | 2340 ± 109 |  |  |  | 
CC(=O)N[C@@H](CCCCn1cc(CO[C@H]2O[C@H](CO)[C@@H](O)[C@H](O)[C@@H]2O[C@H]2O[C@H](CO)[C@@H](O)[C@H](O)[C@@H]2O)nn1)C(=O)NCC(=O)N[C@@H](CCCCn1cc(CO[C@H]2O[C@H](CO)[C@@H](O)[C@H](O)[C@@H]2O[C@H]2O[C@H](CO)[C@@H](O)[C@H](O)[C@@H]2O)nn1)C(=O)NCC(=O)N[C@@H](CCCCN)C(N)=O [B2] | 189 ± 3.45 |  |  |  | 
CC(=O)N[C@@H](CCCCn1cc(CO[C@H]2O[C@H](CO)[C@@H](O)[C@H](O)[C@@H]2O[C@H]2O[C@H](CO)[C@@H](O)[C@H](O)[C@@H]2O)nn1)C(=O)N[C@@H](CCCCn1cc(CO[C@H]2O[C@H](CO)[C@@H](O)[C@H](O)[C@@H]2O[C@H]2O[C@H](CO)[C@@H](O)[C@H](O)[C@@H]2O)nn1)C(=O)N[C@@H](CCCCn1cc(CO[C@H]2O[C@H](CO)[C@@H](O)[C@H](O)[C@@H]2O[C@H]2O[C@H](CO)[C@@H](O)[C@H](O)[C@@H]2O)nn1)C(=O)N[C@@H](CCCCn1cc(CO[C@H]2O[C@H](CO)[C@@H](O)[C@H](O)[C@@H]2O[C@H]2O[C@H](CO)[C@@H](O)[C@H](O)[C@@H]2O)nn1)C(=O)N[C@@H](CCCCn1cc(CO[C@H]2O[C@H](CO)[C@@H](O)[C@H](O)[C@@H]2O[C@H]2O[C@H](CO)[C@@H](O)[C@H](O)[C@@H]2O)nn1)C(=O)N[C@@H](CCCCn1cc(CO[C@H]2O[C@H](CO)[C@@H](O)[C@H](O)[C@@H]2O[C@H]2O[C@H](CO)[C@@H](O)[C@H](O)[C@@H]2O)nn1)C(=O)NCC(=O)N[C@@H](CCCCN)C(N)=O [B6] |  | 0.95 µM and 0.946 µM and 0.9 µM | rapidly internalized | internalized rapidly | 50
CC(=O)N[C@@H](CCCCn1cc(CO[C@H]2O[C@H](CO)[C@@H](O)[C@H](O[C@H]3O[C@H](CO)[C@@H](O)[C@H](O)[C@@H]3O)[C@@H]2O)nn1)C(=O)NCC(=O)N[C@@H](CCCCn1cc(CO[C@H]2O[C@H](CO)[C@@H](O)[C@H](O[C@H]3O[C@H](CO)[C@@H](O)[C@H](O)[C@@H]3O)[C@@H]2O)nn1)C(=O)NCC(=O)N[C@@H](CCCCN)C(N)=O [C2] | 567.4 ± 1.15 |  |  |  | 
CC(=O)N[C@@H](CCCCn1cc(CO[C@H]2O[C@H](CO)[C@@H](O)[C@H](O[C@H]3O[C@H](CO)[C@@H](O)[C@H](O)[C@@H]3O)[C@@H]2O)nn1)C(=O)NCC(=O)N[C@@H](CCCCn1cc(CO[C@H]2O[C@H](CO)[C@@H](O)[C@H](O[C@H]3O[C@H](CO)[C@@H](O)[C@H](O)[C@@H]3O)[C@@H]2O)nn1)C(=O)NCC(=O)N[C@@H](CCCCn1cc(CO[C@H]2O[C@H](CO)[C@@H](O)[C@H](O[C@H]3O[C@H](CO)[C@@H](O)[C@H](O)[C@@H]3O)[C@@H]2O)nn1)C(=O)NCC(=O)N[C@@H](CCCCN)C(N)=O [C3] | 171.9 ± 1.45 |  |  |  | 
CC(=O)N[C@@H](CCCCn1cc(CO[C@H]2O[C@H](CO)[C@@H](O)[C@H](O[C@H]3O[C@H](CO)[C@@H](O)[C@H](O)[C@@H]3O)[C@@H]2O)nn1)C(=O)N[C@@H](CCCCn1cc(CO[C@H]2O[C@H](CO)[C@@H](O)[C@H](O[C@H]3O[C@H](CO)[C@@H](O)[C@H](O)[C@@H]3O)[C@@H]2O)nn1)C(=O)N[C@@H](CCCCn1cc(CO[C@H]2O[C@H](CO)[C@@H](O)[C@H](O[C@H]3O[C@H](CO)[C@@H](O)[C@H](O)[C@@H]3O)[C@@H]2O)nn1)C(=O)N[C@@H](CCCCn1cc(CO[C@H]2O[C@H](CO)[C@@H](O)[C@H](O[C@H]3O[C@H](CO)[C@@H](O)[C@H](O)[C@@H]3O)[C@@H]2O)nn1)C(=O)N[C@@H](CCCCn1cc(CO[C@H]2O[C@H](CO)[C@@H](O)[C@H](O[C@H]3O[C@H](CO)[C@@H](O)[C@H](O)[C@@H]3O)[C@@H]2O)nn1)C(=O)N[C@@H](CCCCn1cc(CO[C@H]2O[C@H](CO)[C@@H](O)[C@H](O[C@H]3O[C@H](CO)[C@@H](O)[C@H](O)[C@@H]3O)[C@@H]2O)nn1)C(=O)NCC(=O)N[C@@H](CCCCN)C(N)=O [C6] |  | 1.17 µM | rapidly internalized | internalized rapidly | 50
